According to ChEMBL document CHEMBL5143545, “Indolylarylsulfones bearing phenylboronic acid and phenylboronate ester functionalities as potent HIV‑1 non-nucleoside reverse transcriptase inhibitors” (Bioorg Med Chem, 2022):
pEC50, pIC50: −log10 of the molar value. In brackets after ≈: the same amount, converted by molar mass.

Key:
[1] = test system: Human immunodeficiency virus 1; assay type: functional, organism-based; conditions: Human immunodeficiency virus 1, MT4
[2] = Toxicity in mock-infected human MT4 cells assessed as reduction in cell viability by MTT assay; assay type: cell-based
[3] = test system: Human immunodeficiency virus 1; assay: Antiviral activity against HIV1 with RT L100I mutant infected in human MT4 cells assessed as protection against viral-induced cytopathogenecity by MTT assay; assay type: functional, organism-based; conditions: Human immunodeficiency virus 1, MT4
[4] = test system: Human immunodeficiency virus 1; assay: Antiviral activity against HIV1 with RT K103N mutant infected in human MT4 cells assessed as protection against viral-induced cytopathogenecity by MTT assay; assay type: functional, organism-based; conditions: Human immunodeficiency virus 1, MT4
[5] = test system: Human immunodeficiency virus 1; assay type: functional, organism-based; conditions: Human immunodeficiency virus 1, MT4; remark: listed apart in the source
[6] = test system: Human immunodeficiency virus 1; assay type: functional, organism-based; conditions: Human immunodeficiency virus 1, MT4; remark: listed apart in the source
[7] = test system: Human immunodeficiency virus 1; assay: Antiviral activity against HIV1 with RT E138K mutant infected in human MT4 cells assessed as protection against viral-induced cytopathogenecity by MTT assay; assay type: functional, organism-based; conditions: Human immunodeficiency virus 1, MT4
[8] = test system: Human immunodeficiency virus 1; assay: Antiviral activity against HIV1 with RT RES056 mutant infected in human MT4 cells assessed as protection against viral-induced cytopathogenecity by MTT assay; assay type: functional, organism-based; conditions: Human immunodeficiency virus 1, MT4
in vitro = conditions: human, MT4 cells, mock-infected (CC50) and HIV1 3B infected (EC50)
Description: Selectivity index, ratio of CC50 for toxicity in mock-infected human MT4 cells assessed as reduction in cell viability by MTT assay to EC50 for antiviral activity against HIV1 3B infected in human MT4 cells assessed as protection against viral-induced cytopathogenecity by MTT assay

[9] = test system: Human immunodeficiency virus 1; assay: microbe, parasite or virus in culture; conditions: Human immunodeficiency virus 1, 3B, MT4
Description: Antiviral activity against HIV1 3B infected in human MT4 cells assessed as protection against viral-induced cytopathogenecity by MTT assay

[10] = Solubility in water at pH 7.4; assay type: physicochemical
[11] = Solubility in water at pH 7; assay type: physicochemical
[12] = Solubility in water at pH 2; assay type: physicochemical
[13] = molecular target: Human immunodeficiency virus type 1 reverse transcriptase (Human immunodeficiency virus 1, UniProt Q72547); assay: Inhibition of HIV1 reverse transcriptase assessed as inhibition of biotin-dUTP incorporation

| SMILES | pEC50 [1] | CC50 [2] [µM] | pEC50 [3] | pEC50 [4] | pEC50 [5] | pEC50 [6] | pEC50 [7] | pEC50 [8] | selectivity ratio (in vitro) | pEC50 [9] | solubility [10] [µg/mL] | solubility [11] [µg/mL] | solubility [12] [µg/mL] | pIC50 [13] |
| --- | --- | --- | --- | --- | --- | --- | --- | --- | --- | --- | --- | --- | --- | --- |
| Cc1cc(C)cc(S(=O)(=O)c2c(C(=O)Nc3ccc(B(O)O)cc3)[nH]c3ccc(Cl)cc23)c1 | 7.10 | 8.55 | 7.43 | 7.39 | 6.67 | < 5.79 | 7.40 | < 3.07 | 712 | 7.92 |  |  |  |  |
| Cc1cc(C)cc(S(=O)(=O)c2c(C(=O)Nc3cccc(B(O)O)c3)[nH]c3ccc(Cl)cc23)c1 | 6.70 | 5.31 | 7.06 | 7.00 | 6.07 | < 5.28 | 7.17 | < 5.28 | 282 | 7.72 |  |  |  |  |
| Cc1ccnc2c1NC(=O)c1cccnc1N2C1CC1 [NEVIRAPINE] | < 2.82 | > 15 |  |  | 4.96 | < 2.82 |  | < 2.82 |  | 6.80 |  |  |  |  |
| Cc1cc(C#N)cc(C)c1Oc1nc(Nc2ccc(C#N)cc2)nc(N)c1Br [ETRAVIRINE] | 7.70 | > 4.59 | 8.12 |  |  |  | 7.72 | 7.18 |  | 8.54 | < 1 | < 2 | < 3 |  |
| Cc1cc(C)cc(S(=O)(=O)c2c(C(=O)NCCNC(=O)c3ccc(B(O)O)cc3)[nH]c3ccc(Cl)cc23)c1 | 6.15 | 24.4 | 6.64 | 6.59 | 6.04 | 5.17 | 6.79 | < 4.61 | 1230 | 7.70 |  |  |  |  |
| Cc1cc(C)cc(S(=O)(=O)c2c(C(=O)NCCCNC(=O)c3ccc(B(O)O)cc3)[nH]c3ccc(Cl)cc23)c1 | 6.93 | 24.7 | 7.68 | 7.48 | 6.72 | 5.65 | 7.47 | 5.31 | 2240 | 7.95 |  |  |  |  |
| O=C1Nc2ccc(Cl)cc2[C@@](C#CC2CC2)(C(F)(F)F)O1 [EFAVIRENZ] |  | > 6.34 |  |  | 8.20 | 6.68 | 8.18 | 6.48 |  |  |  |  |  |  |
| Cc1cc(C)cc(S(=O)(=O)c2c(C(=O)NCCCNC(=O)c3cccc(B(O)O)c3)[nH]c3ccc(Cl)cc23)c1 | 6.66 | 24.2 | 6.96 | 6.89 | 6.57 | 5.74 | 7.07 | 5.27 | 684 | 7.45 |  |  |  |  |
| Nc1ccn([C@@H]2CS[C@H](CO)O2)c(=O)n1 [LAMIVUDINE] | 5.66 | > 87.2 | 5.94 | 5.55 | 5.47 | 5.34 | 5.08 | 5.30 | > 309 | 5.28 |  |  |  |  |
| Cc1cc(C)cc(S(=O)(=O)c2c(C(N)=O)[nH]c3ccc(Cl)cc23)c1 | 7.10 | 7.08 | 8.00 | 7.70 | 7.52 | 5.93 | 8.00 | < 5.15 | 2570 | 8.55 | 29 (≈ 79.9 µM) | 58.3 (≈ 161 µM) | 71.2 (≈ 196 µM) | 8.32 |
| Cc1cc(C)cc(S(=O)(=O)c2c(C(=O)Nc3ccc4c(c3)B(O)OC4)[nH]c3ccc(Cl)cc23)c1 | 6.72 | 8.42 | 7.02 | 6.96 | 6.33 | < 5.71 | 7.19 | < 5.08 | 457 | 7.74 |  |  |  |  |
| Cc1cc(C)cc(S(=O)(=O)c2c(C(=O)NCc3ccc(B(O)O)cc3)[nH]c3ccc(Cl)cc23)c1 | 6.94 | 27.7 | 8.03 | 7.49 | 6.92 | 5.41 | 7.27 | 5.33 | 3140 | 8.06 |  |  |  |  |
| Cc1cc(C)cc(S(=O)(=O)c2c(C(=O)NCc3cccc(B(O)O)c3)[nH]c3ccc(Cl)cc23)c1 | 7.68 | 28 | 8.14 | 8.04 | 7.22 | 6.05 | 7.30 | 5.82 | 3310 | 8.07 | 94.5 (≈ 190 µM) | 70 (≈ 141 µM) | 64 (≈ 129 µM) | 6.91 |
| Cc1cc(C)cc(S(=O)(=O)c2c(C(=O)NC3CCN(Cc4cccc(B(O)O)c4)CC3)[nH]c3ccc(Cl)cc23)c1 | < 5.92 | 6.43 | 6.55 | 6.29 | 5.92 | < 5.19 | 6.14 | < 5.19 | 151 | 7.37 |  |  |  |  |
| Cc1cc(C)cc(S(=O)(=O)c2c(C(=O)NCCNC(=O)c3cccc(B(O)O)c3)[nH]c3ccc(Cl)cc23)c1 | 6.01 | 21.1 | 6.59 | 6.24 | 5.87 | 5.09 | 6.61 | < 4.68 | 517 | 7.39 |  |  |  |  |
| Cc1cn([C@H]2C[C@H](N=[N+]=[N-])[C@@H](CO)O2)c(=O)[nH]c1=O [ZIDOVUDINE] | 8.01 | > 7.48 | 8.03 | 7.66 | 7.82 | 7.92 | 7.46 |  | > 352 | 7.67 |  |  |  |  |
| Cc1cc(C)cc(S(=O)(=O)c2c(C(=O)NC3CCN(Cc4ccc(B(O)O)cc4)CC3)[nH]c3ccc(Cl)cc23)c1 | 5.88 | 19.3 | 6.96 | 6.51 | 5.97 | < 4.71 | 6.19 | < 4.71 | 615 | 7.50 |  |  |  |  |
| Cc1cc(C)cc(S(=O)(=O)c2c(C(=O)NCc3ccc(B4OC(C)(C)C(C)(C)O4)cc3)[nH]c3ccc(Cl)cc23)c1 | 7.04 | 23.9 | 7.85 | 7.46 | 7.16 | 5.59 | 7.35 | 5.39 | 3550 | 8.17 | 37.7 (≈ 65.1 µM) | 35.8 (≈ 61.8 µM) | 73 (≈ 126 µM) | 6.92 |
